We go through ten compounds from patent publication US20110190235A1, “BORON-CONTAINING SMALL MOLECULES AS ANTIPROTOZOAL AGENTS” (Anacor Pharmaceuticals, Inc., priority 2009, published 2011).

Like-named read-outs stand apart in the source and are kept apart here.

The nature of data set [1]: Pharmacokinetic studies in rats (plasma, brain, CSF). It counts as in vivo. The following applies: for half-life: read-out: t½ (converted); for Cmax / AUC(0-t) / AUC(0-inf): normalized to 25 mg/kg; for AUC(0-t): read-out: Exposure/trapezoid AUC0-18; for AUC(0-inf): read-out: Exposure/trapezoid AUC0-inf. How it is done: Male Sprague Dawley rats weighing approximately 200 g received test article (E19 or 82) as a single oral gavage (OG) dose of approximately 25 mg/kg (approximately 10 animals per group).
All doses were administered as clear colorless solutions as in situ sodium salts in 5% (m/v) dextrose:2% (v/v) ethanol in DWI. All dose solutions were delivered at 2 mL/kg. Animals were fasted for at least 4 hours before dosing, and for 2 hours after dosing.
Blood and CSF samples and brain tissue were sampled from 1 animal/timepoint/group immediately before dosing and approximately 0.5, 1, 2, 3, 4, 6, 8, 12, 18 and 24 hr after dosing for full pharmacokinetic (plasma and CSF) and tissue (Brain) analysis.

The nature of data set [2]: Pharmacokinetic studies in mice (plasma, brain). It counts as in vivo. The following applies: for half-life / CL/F / Cmax / AUC(0-t) / AUC(0-inf): male, CD-1, mouse; for half-life: read-out: t½ (converted); for CL/F: read-out: Oral Clearance Cl/F (converted); for AUC(0-inf): read-out: Exposure/trapezoid AUC0-inf. As to the method: Male CD-1 mice weighing approximately 25 g received the test article (E19 or 82 or E14 or 69) by either intravenous (IV), oral gavage (OG) or intra-peritoneal (IP) routes. Animals in IV group (6-10 animals, 1-2 per time point) received a single bolus injection of approximately 2 mg/kg of the test article. Animals receiving […], or as 4 repeat doses ([…], 1-2 per time point).
All doses were administered as clear colorless solutions in either: 50% (v/v) PEG400:20% (v/v) ethanol:30% (v/v) carboxymethylcellulose (0.5% w/v in sterile water for injection, WFI), or as in situ sodium salts in 5% (m/v) dextrose:2% (v/v) ethanol in DWI. All dose solutions were delivered at 4 mL/kg. Animals were fasted for at least 4 hours before dosing, and for 2 hours after dosing.
Blood samples and brain tissue were sampled from 1 or 2 animals/timepoint/group immediately before dosing and approximately 0.17, 0.5, 1, 2, 3, 4, 6, 8, 12, 18 and 24 hr after dosing for full pharmacokinetic and tissue analysis, or at 0.5, 2 and 4 hours post dosing to assess early-phase CNS disposition.
Bioanalysis for test article in whole blood, plasma or brain tissue was performed by HPLC with tandem mass spectrometry (LC-MSMS). Whole blood and plasma samples were treated with 3 volumes of either acetonitrile or methanol to precipitate plasma proteins. Treated samples were centrifuged and supernatants removed for analysis. Brain tissues were weighed and homogenized mechanically in the presence of 1 volume of phosphate-buffered saline (PBS). The resulting tissue suspensions were then diluted with a further volume of PBS, and then treated in the same manner as whole blood or plasma.
Extracted samples were assayed for test article by means of LC-MSMS employing reversed-phase chromatography coupled to a triple quadrupole mass spectrometer employing electrospray ionization in the positive ion mode. The analytical column was a Phenomenex Luna 3μ C8 50×2 mm, with an online sample purification step performed on a Phenomenex Synergi 4μ Polar RP 50×2 mm column.
Test articles were eluted using a binary mobile phase gradient comprising 5 mM Ammonium Acetate: 0.1% formic acid in either MeOH or H2O.
Non-compartmental analysis of plasma test article concentration versus time was performed in Microsoft Excel to generate pharmacokinetic parameters including: area under the curve (AUC), clearance (as Cl or Cl/F), volume of distribution (Vdss), half-life (t½), and bioavailability (F).

The subject of data set [3] is bloodstream-form trypanosome T. brucei brucei 427 strain. The experiment in a line: Trypanosoma brucei brucei high-throughput in vitro drug sensitivity assay (resazurin). It counts as cell-based. The following applies: for IC50: Trypanosoma brucei.
A short description of data set [4]: L929 cytotoxicity evaluation (resazurin). It counts as cell-based. The following applies: mouse, L929 mouse fibroblast cells; 72 hrs incubation; read-out: Cytotox L-929 IC50. In short, it runs like this:
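Mouse L929 fibroblasts (1×10^4/mL seeding, attached overnight) were treated 72 h at 37 °C, 5% CO2 with serially diluted compounds in DMSO in D-MEM/10% FBS. Viability read by resazurin fluorescence after 3–4 h (ex 544/em 590 nm); IC50 from sigmoidal fits of single data points.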
In general terms: Alamar Blue is a resazurin reagent that responds to reducing activity.

Where [5] appears, read: male, Sprague Dawley, rat, CSF, oral, rats.
[6] abbreviates: male, Sprague Dawley, rat, brain, oral, rats.
[7] abbreviates: male, Sprague Dawley, rat, plasma, oral, rats.
Where [8] appears, read: 8 mg/kg, brain, oral, mice (Table 3a).
Where [9] appears, read: 8 mg/kg, brain, oral, mice, normalized to 25 mg/kg (Table 3a).
[10] abbreviates: 8 mg/kg, plasma, oral, mice (Table 3a).
Where [11] appears, read: 8 mg/kg, plasma, oral, mice, normalized to 25 mg/kg (Table 3a).
[12] abbreviates: 72 hrs incubation, read-out: T.b. brucei IC50.

A word on the Cmax: it is the peak of the concentration-time curve. With `O=C(Nc1ccc2c(c1)B(O)OC2)c1ccc(F)cc1C(F)(F)F` [E19, 4-Fluoro-N-(1-hydroxy-1,3-dihydro-benzo[c][1,2]oxaborol-6-yl)-2-trifluoromethyl-benzamide], the half-life in data set [1] (male, Sprague Dawley, rat, 25 mg/kg, CSF, oral, rats) was 3.1 h; in data set [1] (male, Sprague Dawley, rat, 25 mg/kg, brain, oral, rats) it was 2.6 h; in data set [1] (male, Sprague Dawley, rat, 25 mg/kg, plasma, oral, rats), 8.1 h; in data set [2] (25 mg/kg, brain, oral, mice), 2.3 h; in data set [2] (25 mg/kg, plasma, oral, mice) it was 17.1 h. For the same compound, the CL/F in data set [1] (male, Sprague Dawley, rat, 25 mg/kg, plasma, oral, rats, read-out: Oral Clearance Cl/F (converted)) is 4.35 mL/min/kg; in data set [2] (25 mg/kg, plasma, oral, mice), 3.83 mL/min/kg. The Cmax in data set [1] (setting [5]) turned out to be 1200 ng/mL; in data set [1] (setting [6]), 2500 ng/mL; in data set [1] (setting [7]), 12300 ng/mL; in data set [2] (brain, oral, mice, normalized to 25 mg/kg (nominal 25 mg/kg)) it was 6100 ng/mL; in data set [2] (plasma, oral, mice, normalized to 25 mg/kg (nominal 25 mg/kg)), 10000 ng/mL. Further, the AUC(0-t) in data set [1] (setting [5]) came out at 3800 ng·h/mL; in data set [1] (setting [6]) it was 12700 ng·h/mL; in data set [1] (setting [7]), 98300 ng·h/mL; in data set [2] (brain, oral, mice, normalized to 25 mg/kg, read-out: Exposure/trapezoid AUC0-18), 13100 ng·h/mL; in data set [2] (plasma, oral, mice, normalized to 25 mg/kg, read-out: Exposure/trapezoid AUC0-18) it was 70600 ng·h/mL. In addition, the AUC(0-inf) in data set [1] (setting [5]) is 3900 ng·h/mL; in data set [1] (setting [6]), 12700 ng·h/mL; in data set [1] (setting [7]), 102000 ng·h/mL; in data set [2] (brain, oral, mice, normalized to 25 mg/kg), 13200 ng·h/mL; in data set [2] (plasma, oral, mice, normalized to 25 mg/kg), 109000 ng·h/mL. The “time levels in brain and CSF are above the in vitro MIC” value in data set [1] (nominal single oral dose of 25 mg/kg to rats) turned out to be 4 h. In addition, the “F (% of IV)” value in data set [1] (plasma, oral, rats) amounted to 123.0%; in data set [2] (plasma, oral, mice) it was 26%. Besides, the “dose proportionality of exposure in plasma, brain and CSF” value in data set [1] (rats) was “increase in a generally proportional manner with dose”. In data set [2] (mouse and rat, brain (and CSF)), the “brain concentrations relative to the MIC” value was “decrease rapidly to levels below the MIC within a few hours after dosing”. Further, in data set [2] (oral delivery to mice), the “dose proportionality of brain exposure” value was “generally dose-proportional increases”. In addition, the “dose proportionality of plasma exposure” value in data set [2] (oral delivery to mice) was “greater than proportional at doses above 20 mg/kg”. The “plasma PK when administered to rodents” value in data set [2] (rodents, plasma) is “good exposure (AUC and Cmax), promising bioavailability, prolonged half-life, and low clearance”.
Take `O=C(Nc1ccc2c(c1)B(O)OC2)c1ccc(F)cc1Cl` [E14, 2-Chloro-4-fluoro-N-(1-hydroxy-1,3-dihydro-benzo[c][1,2]oxaborol-6-yl)-benzamide]: the CL/F is 134 mL/min/kg in data set [2] (setting [8]) and 28.8 mL/min/kg in data set [2] (setting [10]). Also, the results for the half-life in data set [2] (setting [8]) and in data set [2] (setting [10]) were 1.6 h and 2.97 h, respectively. For the same compound, the Cmax in data set [2] (setting [9]) worked out at 2440 ng/mL; in data set [2] (setting [11]), 3590 ng/mL. Also, the AUC(0-inf) was determined as 3150 ng·h/mL in data set [2] (setting [9]) and 15200 ng·h/mL in data set [2] (setting [11]). The AUC(0-t) in data set [2] (8 mg/kg, brain, oral, mice, normalized to 25 mg/kg (Table 3a), read-out: Exposure/trapezoid AUC0-last) stood at 3120 ng·h/mL; in data set [2] (8 mg/kg, plasma, oral, mice, normalized to 25 mg/kg (Table 3a), read-out: Exposure/trapezoid AUC0-last), 14400 ng·h/mL.
Turning to `C=Cc1ccc(C(=O)Nc2ccc3c(c2)B(O)OC3(C)C)c(Cl)c1` [compound 97, 2-Chloro-N-(1-hydroxy-3,3-dimethyl-1,3-dihydro-benzo[c][1,2]oxaborol-6-yl)-4-vinyl-benzamide], the IC50 in data set [3] (72 h, read-out: T.b. brucei IC50 (ug/mL)) is 0.05 µg/mL. Also, the IC50 at 72 h in data set [4] is over 10 µg/mL.
As for `Cc1ccc(C(=O)Nc2ccc3c(c2)B(O)OC3(C)C)c(C)c1` [compound 78, N-(1-Hydroxy-3,3-dimethyl-1,3-dihydro-benzo[c][1,2]oxaborol-6-yl)-2,4-dimethyl-benzamide], the IC50 in data set [3] (setting [12]) worked out at 1.1 µg/mL. Also, the IC50 at 72 h in data set [4] is over 10 µg/mL.
Turning to `CC1(C)OB(O)c2cc(NC(=O)c3c(F)ccc(F)c3Cl)ccc21` [compound 104, 2-Chloro-3,6-difluoro-N-(1-hydroxy-3,3-dimethyl-1,3-dihydro-benzo[c][1,2]oxaborol-6-yl)-benzamide], the IC50 in data set [3] (setting [12]) came to 1.12 µg/mL. Besides, the IC50 at 72 h in data set [4] was over 10 µg/mL.
For `COc1ccc(C(=O)Nc2ccc3c(c2)B(O)OC3(C)C)cc1C` [compound 95, N-(1-Hydroxy-3,3-dimethyl-1,3-dihydro-benzo[c][1,2]oxaborol-6-yl)-4-methoxy-3-methyl-benzamide], the IC50 in data set [3] (setting [12]) came to 0.86 µg/mL. Further, the IC50 at 72 h in data set [4] is over 10 µg/mL.
The matching figures for `CC1(C)OB(O)c2cc(NC(=O)c3ccccc3[N+](=O)[O-])ccc21` [compound 55, N-(1-Hydroxy-3,3-dimethyl-1,3-dihydro-benzo[c][1,2]oxaborol-6-yl)-2-nitro-benzamide]: 0.122 µg/mL and over 10 µg/mL.
In the case of `Cc1ccc(C(=O)Nc2ccc3c(c2)B(O)OC3(C)C)c(Cl)c1` [compound 89, 2-Chloro-N-(1-hydroxy-3,3-dimethyl-1,3-dihydro-benzo[c][1,2]oxaborol-6-yl)-4-methyl-benzamide], the IC50 in data set [3] (setting [12]) was found to be 0.152 µg/mL. In addition, the IC50 at 72 h in data set [4] was over 10 µg/mL.
`CC1(C)OB(O)c2cc(NC(=O)c3ccc(I)cc3Cl)ccc21` [compound 77, 2-Chloro-N-(1-hydroxy-3,3-dimethyl-1,3-dihydro-benzo[c][1,2]oxaborol-6-yl)-4-iodo-benzamide]: the IC50 in data set [3] (setting [12]) stood at 0.05 µg/mL. Further, the IC50 at 72 h in data set [4] was over 10 µg/mL.
Consider `O=C(Nc1ccc2c(c1)B(O)OC21CCCC1)c1ccccc1Cl` [compound 137, 2-Chloro-N-(1-hydroxy-3,3-spirocyclopentyl′-1,3-dihydro-benzo[c][1,2]oxaborol-6-yl)-benzamide], for which the “Selectivity Index (L929 IC50 / T. b. brucei IC50)” value in data set [3] (T. b. brucei vs L929) was over 3. Also, the IC50 in data set [3] (72 hrs incubation, read-out: T. b. brucei IC50) stood at 10.6 µM; in data set [3] (setting [12]), 3.62 µg/mL. In data set [4], the IC50 at 72 h is over 10 µg/mL.
